According to PubChem BioAssay AID2423 (Broad Institute, 2010):
Inconclusive results are not listed. The source made the active and inactive calls. No rule for the calls is given here.

Test system: C. albicans CaCi-8 + fluconazole, Alamar Blue growth, 48 h
Assay: resistant C. albicans growth inhibition with fluconazole, dose response, CaCi-8 strain, Alamar Blue fluorescence (AID 2423)

Row | SMILES | EC50
1 | N=C1/C(=C\c2ccc(SCc3ccccc3)o2)C(=O)N=C2SC=NN12 | > 15000 nM (inactive)
2 | O=C1CN2C(=Nc3ccc(Cl)cc3C2c2ccccc2)CN1 (stereo not given) | 3300 nM
3 | Cc1ccc(/C=C/C(=O)c2ccccc(=O)c2O)cc1C | 2720 nM
4 | c1ccc(CC2CCN(C3=Nc4cccc5cccc3c45)CC2)cc1 | 4400 nM
5 | O=C(Cc1ccc(Cl)cc1)NNC(=S)NC(=O)c1cccs1 | 1570 nM
6 | CCn1c(C)nc2cc(C(=O)NNC(=S)Nc3ccc(Cl)cc3Cl)ccc21 | 990 nM
7 | c1ccc(-c2cccc(-c3ccccn3)n2)nc1 | 521 nM
8 | COc1ccc(-c2csc(-c3ccccc3)n2)c(OC)c1 | 3810 nM
9 | Cc1ccc(NC(=O)c2ccc([N+](=O)[O-])o2)cc1C | 1130 nM
10 | CC(C)C(=O)NC(c1ccco1)c1ccc2cccnc2c1O (stereo not given) | 1940 nM
11 | O=[N+]([O-])c1ccc(N/N=C/c2ccc(O)c(O)c2O)c(S(=O)(=O)N2CCOCC2)c1 | 8260 nM
12 | O=c1c2ccc(Cl)cc2nc(-c2cccc(C(F)(F)F)c2)n1O | 832 nM
13 | Cc1ccc2[nH]c(=O)c(C3C(C#N)=C(N)Oc4c3ccc3cccnc43)cc2c1 (stereo not given) | 971 nM
14 | COc1ccc(CCn2c(C)cc3c(c2=O)C(c2ccc4c(c2)OCO4)C(C#N)=C(N)O3)cc1OC (stereo not given) | > 16000 nM (inactive)
15 | Nc1nonc1-n1nnc(C(=O)N/N=C/c2cc(Cl)ccc2O)c1CN1CCCCCC1 | 1820 nM
16 | O=C(Nc1ccc(F)c(Cl)c1)NC1CC1 | 1490 nM
17 | Cc1cccc(/C=C/C(=O)c2cc(Br)ccc(=O)c2O)c1 | 987 nM
18 | C=CC(C)(C)c1c(O)c(CC=C(C)C)c(O)c2c(=O)c3ccc(O)c(O)c3oc12 | 3410 nM
19 | O=[N+]([O-])c1cc(Br)c(O)c(/C=N/Nc2nnnn2-c2cccc3ccccc23)c1 | > 15000 nM (inactive)
20 | CCN(CC)C(=O)/C(=C/c1ccc2c(c1)OCO2)NC(=O)c1ccc(Br)cc1 | 1200 nM
21 | CCOCCCNC(=O)c1ccc(N(C)S(=O)(=O)c2ccc(OC)cc2)cc1 | > 16000 nM (inactive)
22 | Cc1cc(NC(=O)COC(=O)[C@@H](NS(=O)(=O)c2ccc(Br)cc2)C(C)C)no1 | > 15000 nM (inactive)
23 | CCc1nnc(NC(=O)CN2CCN(c3nc(-c4ccccc4)cs3)CC2)s1 | 371 nM
24 | CCOc1cc(S(=O)(=O)NCc2ccccc2)c(OCC)cc1-n1cnnn1 | > 15000 nM (inactive)
25 | COc1ccc(NC(=O)c2ccc([N+](=O)[O-])o2)cc1 | 1340 nM
26 | Cc1ccc(S(=O)(=O)N(C)c2ccc(OCC(=O)Nc3nnc(C4CC4)s3)cc2)cc1 | 708 nM
27 | CC(C)(C)C1CCC(OC(=O)C[N+]2(C)CCCCC2)CC1 (stereo not given) | 11300 nM
28 | CSc1ccc(/C=C/C(=O)Nc2ccccc2)cc1 | > 15000 nM (inactive)

Row | SMILES | EC50
29 | CCCCCn1c(=O)c(C(=O)NCc2ccncc2)c(O)c2ccccc21 | 1720 nM
30 | OCCCNc1cc(-c2ccnc(Nc3cccc(Cl)c3)n2)ccn1 | 939 nM
31 | Cc1cc(NC(=O)c2c(F)cccc2Cl)n(-c2nc3ccccc3[nH]2)n1 | 7390 nM
32 | CC(=O)NNC(=S)NC(=O)C(c1ccccc1)c1ccccc1 | 3190 nM
33 | Cc1nc2ccccc2cc1OCc1ccc(F)cc1 | 909 nM
34 | O=C(O)COc1ccccc1C(Nc1cccnc1)c1cc(Cl)c2cccnc2c1O (stereo not given) | 9890 nM
35 | CCCCCc1ccc(-c2ccc(/C=C/C(=O)O)cc2)nc1 | 957 nM
36 | COc1cccc(F)c1C(C[N+](=O)[O-])c1c(N)n(C)c(=O)n(C)c1=O (stereo not given) | 1660 nM
37 | O=C(NCc1ccc(F)cc1)c1ccc(CS(=O)(=O)Cc2ccccc2F)o1 | > 15000 nM (inactive)
38 | NC(=S)n1[nH]c(-c2ccccc2)c(N=Nc2ccccc2C(=O)N2CCOCC2)c1=O | 8430 nM
39 | CCCCCCCSc1nc(N)cc(=O)[nH]1 | 5940 nM
40 | Cn1cccc1-c1cc(C(=O)N2CCc3c([nH]c4ccccc34)C2c2ccccn2)[nH]n1 (stereo not given) | 741 nM
41 | C(=C\c1ccccc1)/CN1CCN(c2ncnc3c2oc2ccccc23)CC1 | < 120 nM
42 | COc1ccc(N(CC(=O)Nc2ccccc2C(N)=O)S(=O)(=O)c2ccc(C)c([N+](=O)[O-])c2)cc1 | 319 nM
43 | CCc1nnc(NC(=O)Cn2ccc(C(F)(F)F)n2)s1 | > 15000 nM (inactive)
44 | Cc1nnc(NC(=O)c2ccc(S(=O)(=O)N(C)Cc3ccccc3)cc2)o1 | 808 nM
45 | COc1cc(NS(=O)(=O)c2ccc3ccccc3c2)c2ncccc2c1 | 2560 nM
46 | O=[N+]([O-])c1ccc(O)c(P(=O)(c2ccccc2)c2ccccc2)c1 | > 15000 nM (inactive)
47 | COC1=CC(=O)C(O)=C(CCCCCCC/C=C/CCCCCCCC2=C(O)C(=O)C=C(OC)C2=O)C1=O | 11900 nM
48 | O=C1C(Nc2ccccc2)=C/C(=N/S(=O)(=O)c2cccs2)c2ccccc21 | 3340 nM
49 | O=C(c1ccccc1)c1ccc2nc(-c3ccc(NC(=O)c4ccccc4Br)cc3)[nH]c2c1 | 377 nM
50 | Oc1c(C(c2ccc(Cl)cc2)N2CCCC2)cc(Cl)c2cccnc12 (stereo not given) | 686 nM
51 | COc1ccccc1C(=O)NNC(=S)NC(=O)c1cc(OC)c(OC)c(OC)c1 | 9620 nM
52 | CCOc1ccc(/C=N/NC(=O)c2[nH]ncc2Br)c(O)c1 | 1850 nM
53 | O=C(N/N=C/c1c(O)ccc2ccccc12)c1cccnc1 | 1430 nM
54 | S=C(NCCN1CCOCC1)NC1CCCC1 | > 15000 nM (inactive)
55 | N/C(Cc1ccc(Cl)c(Cl)c1)=N\OC(=O)c1cccs1 | 893 nM
